These are literature values, as cited in US6375990B1, “Method and devices for transdermal delivery of lithium” (Emory University, priority 1997, dated 2002).

The conditions of data set [1]: patients who do not respond to antidepressant monotherapy.
Test in data set [2]: not given
This is another data set of the same source.

Where only a bound is given, the exact number is not on record here.

As usually defined, the half-life is how long it takes for the measured level to halve. On to `[Li+]` [Li^+, Lithium], for which the “antidepressant non-responders converted to responders” value in data set [1] is given as “approximately 50 % of patients”. In addition, the “final volume of distribution (Vd)” value (approximates total body water) is 0.7 to 0.9 L/kg. The “time to maximal plasma Li+ concentration (Tmax)” value (immediate release formulations, following an oral dose) is 1 to 4 h. In addition, for the setting “in vivo”, the “binding to blood proteins” value is reported as “does not bind to blood proteins”; the “biotransformation / metabolic conversion” value is on record as “not biotransformed”; the “elimination through sweat, saliva, and feces” value is “less than 5 % of an oral dose”; the “excretion through the kidneys” value is listed as greater than 90%. Under “in vivo”, the “filtered load reabsorbed in the renal proximal tubules” value is reported as “Eighty” and the half-life was 18 to 36 h. Where the note is “oral administration”, the “absorption from the gastrointestinal tract” value was “readily and nearly completely absorbed”. In data set [2] (plasma), the “plasma concentration associated with life-threatening intoxication” value was “exceeding 3.5 mEq/L”. In data set [2] (serum), the “serum concentration above which adverse effects increase greatly” value is reported as “exceed 1.5 mEq/L”.
